Where a SMILES comes first, the peptide text is derived from it.
Key:
[1] = tested on: picryl chloride-induced delayed type hypersensitivity; experiment: Inhibitory effect on picryl chloride-induced delayed type hypersensitivity (ear swelling); format: in vivo; conditions: BALB/C female mice, oral, once a day for 7 days, dose 10 mg/kg
Description: EXPERIMENT 2 Inhibitory effect on picryl chloride-induced delayed type
BALB/C female mice (10-week-old) were sensitized by spreading one ml of an ethanol solution containing 7 w/v % of picryl chloride to abdominal skin of the mice. In a "test group", a test compound was administered orally to the mice a day for 7 days from the day of sensitization.
7 Days after the sensitization, 10 μl of an olive oil solution containing 1 w/v % of picryl chloride was spread to both side skin of left external ear. 24 Hours later, the mice was sacrificed and the thickness of both ears was immediately measured.
The inhibition (%) of swelling of exterernal ear was calculated according to the following formula: [formula]

[2] = Immunomodulatory effect (general statement, no method)

SMILES	Inhibition (%) of swelling of external ear [1] [%]	immunomodulatory effect [2]
COC(=O)[C@H](Cc1c[nH]cn1)NC(=O)[C@H](Cc1ccccc1)NC(=O)N(Cc1ccccc1)NC(=O)OC(C)(C)C [Example 13, 3-tert-butoxycarbonyl-2-benzylcarbazoyl-L-phenylalanyl-L-histidine methyl ester]	72.6	–
COC(=O)[C@H](Cc1c[nH]cn1)NC(=O)[C@H](Cc1ccccc1)NC(=O)[C@H](Cc1ccccc1)NC(C)=O [N-acetyl-L-phenylalanyl-L-phenylalanyl-L-histidine methyl ester] (Ac-Phe-Phe-His-OMe)	–	scarcely an immunomodulatory effect
